Measured values published in patent US20110190269A1, “GAMMA SECRETASE MODULATORS” (priority 2010, published 2011).
Counter-ions that a name gives are not always drawn.

Test system: γ-secretase
Test: Cellular γ-secretase assay (inhibition of Aβ42 secretion)
Assay type: cell-based
Conditions: human neuroglioma H4 cells overexpressing human APP, 22 hrs incubation
Protocol: Human neuroglioma H4 cells overexpressing human APP were plated at 30,000 cells/well/[…] in 96-well plates in IMDM media containing 10% FCS, […] Hygromycin B and incubated for 2 h at 37° C., 5% CO2 prior to adding test compounds.
Compounds for testing were dissolved in 100% Me2SO yielding in a 10 mM stock solution. Typically […] of these solutions were further diluted in 1000 μl of IMDM media (w/o FCS). Subsequent 1:1 dilutions gave a ten point dose response curve. 100 μl of each dilution was added to the cells in 96-well plates. Appropriate controls using vehicle only and reference compound were applied to this assay. The final concentration of Me2S0 was 0.4%.
After incubation for 22 hrs at 37° C., 5% CO2, 50 μl supernatant was transferred into round-bottom 96-well polypropylene plates for detection of Aβ42. 50 μl assay buffer (50 mM Tris/Cl, pH 7.4, 60 mM NaCl, 0.5% BSA, 1% TWEEN 20) was added to the wells followed by the addition of 100 μl of detection antibody (ruthenylated BAP15 0.0625 μg/ml in assay buffer). 50 μl of a premix of capture antibody (biotinylated 6E10 antibody, 1 μg/ml) and Steptavidin-coated magnetic beads (Dynal M-280, 0.125 mg/ml) were preincubated for 1 hr at room temperature before adding the assay plates. Assay plates were incubated on a shaker for 3 hrs at room temperature and finally read in the Bioveris M8 Analyser according to the manufacturer's instructions (Bioveris).
IC50 values for inhibition of Aβ42 secretion were calculated by nonlinear regression fit analysis using XLfit 4.0 software (IDBS).

Row | EC50 | SMILES
1 | 238 nM | COc1cc(Nc2nc3c(-c4ccc(F)cc4C)cc(C)cn3n2)ccc1-n1cnc(C)c1 [Example 66, [8-(4-Fluoro-2-methyl-phenyl)-6-methyl-[1,2,4]triazolo[1,5-a]pyridin-2-yl]-[3-methoxy-4-(4-methyl-imidazol-1-yl)-phenyl]-amine]
2 | 152 nM | COc1cc(Nc2nc3c(Oc4ccccc4)cccn3n2)ccc1-n1cnc(C)c1 [Example 136, N-(3-methoxy-4-(4-methyl-1H-imidazol-1-yl)phenyl)-8-phenoxy-[1,2,4]triazolo[1,5-a]pyridin-2-amine]
3 | 38 nM | COc1cc(Nc2nc3c(-c4ccc(F)cc4Cl)cccn3n2)ccc1-n1cnc(C)c1 [Example 131, 8-(2-chloro-4-fluorophenyl)-N-(3-methoxy-4-(4-methyl-1H-imidazol-1-yl)phenyl)-[1,2,4]triazolo[1,5-a]pyridin-2-amine]
4 | 24 nM | COc1cc(Nc2nc3c(-c4ccc(F)cc4Cl)cc(C)cn3n2)ccc1-n1cnc(C)c1 [Example 65, [8-(2-Chloro-4-fluoro-phenyl)-6-methyl-[1,2,4]triazolo[1,5-a]pyridin-2-yl]-[3-methoxy-4-(4-methyl-imidazol-1-yl)-phenyl]-amine]
5 | 137 nM | COc1cc(Nc2nc3c(-c4ccc(F)cc4F)cccn3n2)ccc1-n1cnc(C)c1 [Example 132, 8-(2,4-difluorophenyl)-N-(3-methoxy-4-(4-methyl-1H-imidazol-1-yl)phenyl)-[1,2,4]triazolo[1,5-a]pyridin-2-amine]
6 | 33 nM | COc1cc(Nc2nc3c(-c4ccc(F)c(Cl)c4)cc(C4CC4)cn3n2)ccc1-n1cnc(C)c1 [Example 147, [8-(3-Chloro-4-fluoro-phenyl)-6-cyclopropyl-[1,2,4]triazolo[1,5-a]pyridin-2-yl]-[3-methoxy-4-(4-methyl-imidazol-1-yl)-phenyl]-amine]
7 | 120 nM | COc1cc(Nc2nc3c(-c4ccc(F)cc4)cccn3n2)ccc1-c1ccnc(C)c1 [Example 53, 8-(4-Fluorophenyl)-N-(3-methoxy-4-(2-methylpyridin-4-yl)phenyl)-[1,2,4]triazolo[1,5-a]pyridin-2-amine]
8 | 19 nM | COc1cc(Nc2nc3c(-c4ccc(F)c(C)c4)cc(C)cn3n2)ccc1-n1cnc(C)c1 [Example 76, 8-(4-Fluoro-3-methylphenyl)-N-(3-methoxy-4-(4-methyl-1H-imidazol-1-yl)phenyl)-6-methyl-[1,2,4]triazolo[1,5-a]pyridin-2-amine]
9 | 90 nM | COc1cc(Nc2nc3c(-c4ccc(F)cc4Cl)cc(C4CC4)cn3n2)ccc1-n1cnc(C)c1 [Example 148, [8-(2-Chloro-4-fluoro-phenyl)-6-cyclopropyl-[1,2,4]triazolo[1,5-a]pyridin-2-yl]-[3-methoxy-4-(4-methyl-imidazol-1-yl)-phenyl]-amine]
10 | 73 nM | COc1cc(F)ccc1-c1cc(C)cn2nc(Nc3ccc(-n4cnc(C)c4)c(OC)c3)nc12 [Example 64, [8-(4-Fluoro-2-methoxy-phenyl)-6-methyl-[1,2,4]triazolo[1,5-a]pyridin-2-yl]-[3-methoxy-4-(4-methyl-imidazol-1-yl)-phenyl]-amine]

Further lines, the compound ahead of its results:

Row | SMILES | EC50
11 | COCc1cnc(C2CCCCC2)n2nc(Nc3ccc(-n4cnc(C)c4)c(OC)c3)nc12 [Example 28, (5-Cyclohexyl-8-methoxymethyl-[1,2,4]triazolo[1,5-c]pyrimidin-2-yl)-[3-methoxy-4-(4-methyl-imidazol-1-yl)-phenyl]-amine] | 1490 nM
12 | COc1cc(Nc2nc3nccc(-c4ccc(F)c(Cl)c4)n3n2)ccc1-n1cnc(C)c1 [Example 73, 7-(3-Chloro-4-fluorophenyl)-N-(3-methoxy-4-(4-methyl-1H-imidazol-1-yl)phenyl)-[1,2,4]triazolo[1,5-a]pyrimidin-2-amine hydrochloride] | 359 nM
13 | COc1cc(Nc2nc3n(n2)CCCC3c2ccc(F)cc2)ccc1-n1cnc(C)c1 (single isomer, unassigned) [Example 51] | 440 nM
14 | COc1cc(Nc2nc3nc(C(F)(F)F)cc(-c4cnccn4)n3n2)ccc1-n1cnc(C)c1 [Example 41, [3-Methoxy-4-(4-methyl-imidazol-1-yl)-phenyl]-(7-pyrazin-2-yl-5-trifluoromethyl-[1,2,4]triazolo[1,5-a]pyrimidin-2-yl)-amine] | 4310 nM
15 | COc1cc(Nc2nc3c(CN4CCOCC4)cnc(-c4ccccc4)n3n2)ccc1-n1cnc(C)c1 [Example 29, [3-Methoxy-4-(4-methyl-imidazol-1-yl)-phenyl]-(8-morpholin-4-ylmethyl-5-phenyl-[1,2,4]triazolo[1,5-c]pyrimidin-2-yl)-amine] | 1270 nM
16 | COc1cc(Nc2nc3n(n2)CCOC3c2ccccc2)ccc1-n1cnc(C)c1 (stereo not drawn) [Example 142, N-(3-methoxy-4-(4-methyl-1H-imidazol-1-yl)phenyl)-8-phenyl-6,8-dihydro-5H-[1,2,4]triazolo[5,1-c][1,4]oxazin-2-amine] | 232 nM
17 | COc1cc(Nc2nc3c(N4CCC(C(F)(F)F)CC4)cccn3n2)ccc1-n1cnc(C)c1 [Example 140, N-(3-methoxy-4-(4-methyl-1H-imidazol-1-yl)phenyl)-8-(4-(trifluoromethyl)piperidin-1-yl)-[1,2,4]triazolo[1,5-a]pyridin-2-amine] | 180 nM
18 | COc1cc(Nc2nc3cccc(N4CCCCC4)n3n2)ccc1-n1cnc(C)c1 [Example 33, [3-Methoxy-4-(4-methyl-imidazol-1-yl)-phenyl]-(5-piperidin-1-yl-[1,2,4]triazolo[1,5-a]pyridin-2-yl)-amine] | 556 nM
19 | COc1cc(Nc2nc3c(Cl)cc(Cl)cn3n2)ccc1-n1cnc(C)c1 [Example 44, (6,8-Dichloro-[1,2,4]triazolo[1,5-a]pyridin-2-yl)-[3-methoxy-4-(4-methyl-imidazol-1-yl)-phenyl]-amine] | 1560 nM
20 | COc1ccc(-c2ccccc2)n2nc(Nc3ccc(-n4cnc(C)c4)c(C#N)c3)nc12 [Example 5, 5-(8-Methoxy-5-phenyl-[1,2,4]triazolo[1,5-a]pyridin-2-ylamino)-2-(4-methyl-imidazol-1-yl)-benzonitrile] | 90 nM
21 | COc1cc(Nc2nc3c(-c4ccc(F)c(F)c4F)ccc(C(C)(C)O)n3n2)ccc1-n1cnc(C)c1 [Example 122, 2-[2-[3-Methoxy-4-(4-methyl-imidazol-1-yl)-phenylamino]-8-(2,3,4-trifluoro-phenyl)-[1,2,4]triazolo[1,5-a]pyridin-5-yl]-propan-2-ol] | 79 nM
22 | COc1cc(Nc2nc3cccc(N4CCOCC4)n3n2)ccc1-n1cnc(C)c1 [Example 30, [3-Methoxy-4-(4-methyl-imidazol-1-yl)-phenyl]-(5-morpholin-4-yl-[1,2,4]triazolo[1,5-a]pyridin-2-yl)-amine] | 247 nM
23 | COc1cc(Nc2nc3ncc(C#N)c(-c4ccccc4C)n3n2)ccc1-n1cnc(C)c1 [Example 67, 2-(3-Methoxy-4-(4-methyl-1H-imidazol-1-yl)phenylamino)-7-o-tolyl-[1,2,4]triazolo[1,5-a]pyrimidine-6-carbonitrile] | 450 nM
24 | COc1cc(Nc2nc3c(C4=CCOCC4)cccn3n2)ccc1-n1cnc(C)c1 [Example 149, [8-(3,6-Dihydro-2H-pyran-4-yl)-[1,2,4]triazolo[1,5-a]pyridin-2-yl]-[3-methoxy-4-(4-methyl-imidazol-1-yl)-phenyl]-amine] | 370 nM
25 | COc1cc(Nc2nc3n(n2)C(c2ccccc2)CCO3)ccc1-n1cnc(C)c1 (stereo not drawn) [Example 109, N-(3-Methoxy-4-(4-methyl-1H-imidazol-1-yl)phenyl)-7-phenyl-6,7-dihydro-5H-[1,2,4]triazolo[5,1-b][1,3]oxazin-2-amine] | 270 nM
26 | COc1cc(Nc2nc3n(n2)CCCC3c2ccc(F)cc2)ccc1-n1cnc(C)c1 (racemic) [Example 1, [8-(4-Fluoro-phenyl)-5,6,7,8-tetrahydro-[1,2,4]triazolo[1,5-a]pyridin-2-yl]-[3-methoxy-4-(4-methyl-imidazol-1-yl)-phenyl]-amine] | 330 nM
27 | COc1cc(Nc2nc3ncc(C#N)c(-c4ccccc4Cl)n3n2)ccc1-n1cnc(C)c1 [Example 38, 7-(2-Chloro-phenyl)-2-[3-methoxy-4-(4-methyl-imidazol-1-yl)-phenylamino]-[1,2,4]triazolo[1,5-a]pyrimidine-6-carbonitrile] | 578 nM
28 | COc1cc(Nc2nc3c(-c4ccc(F)c(F)c4)cc(C(F)(F)F)cn3n2)ccc1-n1cnc(C)c1 [Example 80, 8-(3,4-Difluorophenyl)-N-(3-methoxy-4-(4-methyl-1H-imidazol-1-yl)phenyl)-6-(trifluoromethyl)-[1,2,4]triazolo[1,5-a]pyridin-2-amine] | 121 nM
29 | CCCc1ncc(CN2CCOCC2)c2nc(Nc3ccc(-n4cnc(C)c4)c(OC)c3)nn12 [Example 32, [3-Methoxy-4-(4-methyl-imidazol-1-yl)-phenyl]-(8-morpholin-4-ylmethyl-5-propyl-[1,2,4]triazolo[1,5-c]pyrimidin-2-yl)-amine] | 864 nM
30 | COc1cc(Nc2nc3c(Cl)cc(C(F)(F)F)cn3n2)ccc1-n1cnc(C)c1 [Example 48, (8-Chloro-6-trifluoromethyl-[1,2,4]triazolo[1,5-a]pyridin-2-yl)-[3-methoxy-4-(4-methyl-imidazol-1-yl)-phenyl]-amine] | 4510 nM
